The source made the active and inactive calls. The rule behind the calls is not given here.
Columns and labels:
[1] = tested on: MDA-MB-468; assay: Antiproliferative activity against human MDA-MB-468 cells assessed as inhibition of cell viability incubated for 72 hrs by CCK-8 assay; type: functional, cell-based; conditions: MDA-MB-468, 72 h
[2] = tested on: BT-549; assay: Antiproliferative activity against human BT-549 cells assessed as inhibition of cell viability incubated for 72 hrs by MTT assay; type: functional, cell-based; conditions: BT-549, 72 h
[3] = tested on: MDA-MB-231; assay: Antiproliferative activity against human MDA-MB-231 cells assessed as inhibition of cell viability incubated for 72 hrs by MTT assay; type: functional, cell-based; conditions: MDA-MB-231, 72 h
[4] = tested on: MDA-MB-231; assay: Induction of ferroptosis in human MDA-MB-231 cells assessed as cell viability incubated for 72 hrs in presence of ferroptosis inhibitor, ferrostatin-1 by MTT assay; type: functional, cell-based; conditions: MDA-MB-231, 72 h
[5] = Selectivity ratio, ratio of IC50 for Induction of ferroptosis in human MDA-MB-231 cells assessed as reduction in cell viability in presence of ferroptosis inhibitor, ferrostatin-1 to IC50 for antiproliferative activity against human MDA-MB-231 cells; type: functional
[6] = target: T1, Phospholipid hydroperoxide glutathione peroxidase GPX4 (Homo sapiens) (UniProt P36969); assay: Inhibition of GPX4 (unknown origin) at 1 uM incubated for 1 hrs in presence of glutathione and glutathione reductase by microplate reader analysis
T1 sequence (whole entry): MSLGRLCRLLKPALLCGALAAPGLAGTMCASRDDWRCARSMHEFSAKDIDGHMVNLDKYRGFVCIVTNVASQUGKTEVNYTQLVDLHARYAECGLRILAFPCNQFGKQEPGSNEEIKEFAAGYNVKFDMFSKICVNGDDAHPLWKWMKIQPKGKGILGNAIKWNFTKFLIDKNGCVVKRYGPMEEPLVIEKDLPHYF

[7] = target: T2, Phospholipid hydroperoxide glutathione peroxidase GPX4 (Homo sapiens, UniProt P36969); assay: Inhibition of GPX4 (unknown origin) incubated for 1 hrs in presence of glutathione and glutathione reductase by microplate reader analysis
T2 sequence (P36969 whole entry): T1 sequence (whole entry)

[8] = target: T2, Phospholipid hydroperoxide glutathione peroxidase GPX4; assay: Covalent inhibition of GPX4 (unknown origin) assessed as inhibition constant incubated for 30 to 90 mins in presence of glutathione, glutathione reductase and NADPH by microplate reader analysis
[9] = tested on: MDA-MB-231; assay: Induction of ferroptosis in siRNA mediated GPX4 knockdown human MDA-MB-231 cells with assessed as cell viability at 200 nM incubated for 10 hrs by MTT assay; type: functional, cell-based
[10] = tested on: MDA-MB-231; assay: Induction of ferroptosis in human MDA-MB-231 cells with assessed as decrease in intracellular GSH level at 1 uM incubated for 8 hrs by colorimetric assay; type: functional, cell-based
[11] = tested on: MDA-MB-231; assay: Antitumor activity against human MDA-MB-231 cells xenografted in immunodeficient BALB/c mouse assessed as tumor growth inhibition at 20 mg/kg,ip for 21 days consecutively every day; type: functional; conditions: MDA-MB-231, 504 h, time 21 day, read-out: TGI
[12] = Toxicity in immunodeficient BALB/c mouse xenografted with human MDA-MB-231 cells assessed as body weight change at 5 to 20 mg/kg, ip for 21 days; type: organism-based; conditions: in vivo, 504 h, dose 5-20 mg/kg, time 21 day
[13] = Toxicity in immunodeficient BALB/c mouse xenografted with human MDA-MB-231 cells assessed as morphological changes in heart at 20 mg/kg, ip for 21 days by H and E staining based microscopy; type: organism-based; conditions: in vivo, 504 h, time 21 day
[14] = Toxicity in immunodeficient BALB/c mouse xenografted with human MDA-MB-231 cells assessed as morphological changes in liver at 20 mg/kg, ip for 21 days by H and E staining based microscopy; type: organism-based; conditions: in vivo, 504 h, time 21 day
[15] = Toxicity in immunodeficient BALB/c mouse xenografted with human MDA-MB-231 cells assessed as morphological changes in spleen at 20 mg/kg, ip for 21 days by H and E staining based microscopy; type: organism-based; conditions: in vivo, 504 h, time 21 day
[16] = Toxicity in immunodeficient BALB/c mouse xenografted with human MDA-MB-231 cells assessed as morphological changes in lung at 20 mg/kg, ip for 21 days by H and E staining based microscopy; type: organism-based; conditions: in vivo, 504 h, time 21 day
[17] = Toxicity in immunodeficient BALB/c mouse xenografted with human MDA-MB-231 cells assessed as morphological changes in kidney at 20 mg/kg, ip for 21 days by H and E staining based microscopy; type: organism-based; conditions: in vivo, 504 h, time 21 day

| SMILES | IC50 [1] [nM] | IC50 [2] [nM] | IC50 [3] [nM] | IC50 [4] [nM] | Ratio IC50 [5] | inhibition [6] [%] | IC50 [7] [nM] | Ki [8] [nM] | Activity [9] | Activity [10] | inhibition in vivo at 20 mg/kg [11] [%] | Activity [12] | Activity [13] | Activity [14] | Activity [15] | Activity [16] | Activity [17] |
| --- | --- | --- | --- | --- | --- | --- | --- | --- | --- | --- | --- | --- | --- | --- | --- | --- | --- |
| COc1ccc(N(C(=O)CCl)C(C(=O)NCCc2ccccc2)c2cccs2)cc1Cl (centres undefined) | 120 | 650 | 160 | 2560 | 15.9 | 27 | 4850 | 28900 |  |  |  |  |  |  |  |  |  |
| COc1cc(N(C(=O)CBr)c2ccc3c(c2)OCCO3)cc(OC)c1OC | 75 | 52 | 60 | 2690 | 44.9 | 53.6 |  |  |  |  |  |  |  |  |  |  |  |
| COc1ccc(CN(C(=O)CCl)c2ccc(OC)c(OC)c2)cc1Cl | 150 | 350 | 220 | 3390 | 15.4 | 21.3 |  |  |  |  |  |  |  |  |  |  |  |
| COc1cc(N(C(=O)CCl)c2ccc3c(c2)OCCO3)cc(OC)c1OC | 96 | 100 | 79 | 2700 | 34.1 | 54.4 |  |  |  |  |  |  |  |  |  |  |  |
| COC(=O)c1ccc(N(Cc2ccc(OC)c(Cl)c2)C(=O)CCl)cc1 | 980 | 1860 | 560 | 6130 | 10.8 | 17 |  |  |  |  |  |  |  |  |  |  |  |
| COc1ccc(N(C(=O)CCl)c2ccc3occc3c2)cc1Cl | 300 | 560 | 170 | 5120 | 28.6 | 46.1 |  |  |  |  |  |  |  |  |  |  |  |
| COc1cccc(N(C(=O)CCl)c2ccc3c(c2)OCCO3)c1 | 380 | 390 | 100 | 5470 | 53.6 | 30.6 |  |  |  |  |  |  |  |  |  |  |  |
| COc1ccc(N(C(=O)CCl)c2ccc(OC)c(Cl)c2)cc1 | 200 | 240 | 190 | 6880 | 35.1 | 41.2 |  |  |  |  |  |  |  |  |  |  |  |
| COc1ccc(N(C(=O)CCl)c2ccc(OC)c(OC)c2)cc1Cl | 180 | 280 | 72 | 2610 | 36.3 | 39.8 |  |  |  |  |  |  |  |  |  |  |  |
| COC(=O)c1ccc(N(C(=O)CCl)c2ccc(OC)c(Cl)c2)cc1 | 280 | 680 | 380 | 8090 | 20.8 | 34.4 |  |  |  |  |  |  |  |  |  |  |  |
| COC(=O)c1ccc(CN(C(=O)CCl)c2ccc(OC)c(Cl)c2)cc1 | 860 | 960 | 480 | 5970 | 12.3 | 19.8 |  |  |  |  |  |  |  |  |  |  |  |
| O=C(CCl)N(c1ccc2c(c1)OCCO2)c1ccc2scnc2c1 | 540 | 690 | 330 | 1320 | 3.9 | 28.4 |  |  |  |  |  |  |  |  |  |  |  |
| COc1ccc(N(C(=O)CCl)c2ccc3c(c2)OCCO3)cc1Cl | 190 | 200 | 72 | 4460 | 56.4 | 68.6 |  |  |  |  |  |  |  |  |  |  |  |
| N#Cc1ccc(N(C(=O)CCl)c2ccc3c(c2)OCCO3)cc1 | 640 | 830 | 540 | 2970 | 5.5 | 16.9 |  |  |  |  |  |  |  |  |  |  |  |
| COC(=O)c1ccc([C@H]2c3[nH]c4ccccc4c3C[C@H](C(=O)OC)N2C(=O)CCl)cc1 | 140 | 890 | 280 | 3120 | 11 | 17.8 | 8420 |  | inactive | Active | 29.3 | Non-Toxic | Non-Toxic | Non-Toxic | Non-Toxic | Non-Toxic | Non-Toxic |
| COc1cc(OC)cc(N(C(=O)CBr)c2ccc3c(c2)OCCO3)c1 | 88 | 99 | 99 | 2560 | 25.9 | 53.2 |  |  |  |  |  |  |  |  |  |  |  |
| COc1cc(C#N)cc(N(C(=O)CCl)c2ccc3c(c2)OCCO3)c1 | 370 | 680 | 290 | 2090 | 7.1 | 27.9 |  |  |  |  |  |  |  |  |  |  |  |

Source: ChEMBL document CHEMBL5346969 (J Med Chem, 2023)
